Like-named read-outs stand apart in the source and are kept apart here.
What was measured:
Format in all cases: in vivo
[1] = tested on: hyperlipaemic SD male rats; assay: Hypolipemizing activity, 5 days experimental model, modified Nath diet; settings: rat, oral; for change in vivo at 100 mg/kg/day / change in vivo at 300 mg/kg/day: 120 h; for Hepatic index (percent variation vs hyperlipaemic controls): index = (Liver weight/body weight) × 100
Protocol: (§1) The hypolipemizing activity of the compounds of the present invention has been evaluated in the rat using SD male animals (Charles River) of an initial weight of 150 g, housed in controlled environment at a temperature of 21°±1° C., relative humidity 60% and a 12 hours light/dark cycle.
Experimental models have been used in which the animals are rendered hiperlipaemic by "ad libitum" food administration with a modified Nath diet (Atherosclerosis 30, 1978, pag. 45-46) having the following composition: […]
hydrogenated coconut oil
In the first model the animals have been fed with this diet for 5 consecutive days, during which they received the pharmacological treatment once a day by oral route and were sacrificed 2 hours after the last administration.
At the time of the sacrifice the blood was removed, for the lipid determination, as well as the liver the weight of which was the index of a possible hepatomegaly.
By this experimental model the concentration of the serum lipids attained very high values which, in the control group, was four times the normal values for the total cholesterol and the triglycerides.
(§2) The determination of the triglycerides, of the total cholesterol and of the cholesterol associated to the HDL has been effected by means of a commercial enzymatic kit. The concentration of the cholesterol associated to VLDL+LDL has been determined by difference between total cholesterol and HDL.
The results obtained in the experimental model of the 5 days duration for some compounds representative of the invention are reported in the following table 1. The data are expressed as percent variation with respect to the hyperlipaemic controls to which carboxymethylcellulose as 0.5% in water at the dose of 10 ml/kg/day by oral route was administered. The same vehicle was used for the suspension of the tested compounds at the doses of 100 and 300 mg/kg/day by oral route.

[2] = tested on: hyperlipaemic SD male rats; assay: Hypolipemizing activity, 15 days experimental model, modified diet; settings: rat, oral; for Cholesterol VLDL + LDL (percent variation vs hyperlipaemic controls): by difference between total and HDL; for Hepatic index (percent variation vs hyperlipaemic controls): index = (Liver weight/body weight) × 100
Protocol: as §1
Experimental models have been used in which the animals are rendered hiperlipaemic by "ad libitum" food administration with a modified Nath diet (Atherosclerosis 30, 1978, pag. 45-46) having the following composition:
In the second model a diet was used which was modified with respect to the former one by the following parameters: […]
The animals were fasted with this diet for 15 days consecutively, during which they received the pharmacological treatment once a day by oral route and were sacrificed 24 hours after the last administration. At the sacrifice time the blood was removed for the lipid determination and the liver was removed as well to be weighed and used for the evaluation of the catalase enzyme as the index of the peroxysomes proliferation and thus of hepatotoxicity.
This experimental model has been used only for the molecules which in the first model were found more promising, and has permitted to get values of the serum lipids from 2 to 3 times higher than the normal values both for the total cholesterol and for the triglycerides.
This experimental model was used to:
a) evaluate the effectiveness on a less marked hyperlipoproteinaemy, and
b) assess mainly at the hepatic level the tolerability of the compounds during a more extended treatment.
as §2
On the basis of the indications provided by this screening the most interesting compounds have been evaluated by the 15 days experimental model which permits both the evaluation of the effectiveness in the case of a hyperlipaemia less marked and more constant, and the tolerability control of the compounds during a longer term treatment.
In this case too the results (reported in the following table 2) are expressed as the percent variation with respect to the hyperlipaemic controls to which carboxymethylcellulose as 0.5% in water was administered by oral route at the dose of 10 ml/kg/day. The same vehicle was used for the suspension of the compounds being tested, administered at the doses; of 50 and 100 mg/kg/day by oral route.

catalase enzyme = assay: Hepatic tolerability, 15 days at high dose: catalase enzyme activity in liver (index of peroxysomes proliferation); settings: rat liver, oral, 15 days, 300 mg/kg/day; absolute values; solvent 539,8
Protocol: (§3) The hypolipemizing activity of the compounds of the present invention has been evaluated in the rat using SD male animals (Charles River) of an initial weight of 150 g, housed in controlled environment at a temperature of 21°±1° C., relative humidity 60% and a 12 hours light/dark cycle. The animals were fasted with this diet for 15 days consecutively, during which they received the pharmacological treatment once a day by oral route and were sacrificed 24 hours after the last administration. At the sacrifice time the blood was removed for the lipid determination and the liver was removed as well to be weighed and used for the evaluation of the catalase enzyme as the index of the peroxysomes proliferation and thus of hepatotoxicity. In order to evaluate the hepatic tolerability of the compounds of interest they have been administered for 15 days at a high dose (300 mg/kg/day) according to the same conditions of the previous experiment.24 hours after the last treatment the animals have been sacrificed, and the liver has been removed and stored at -20° C. up to the time of dosing the activity of the catalase enzyme (Methods of enzymatic analysis, vol.2, pag. 673, 1974 edit. H. U. Bergmeyer, Verlag Chemie International).

liver = assay: Hepatic tolerability, 15 days at high dose: hepatic index; settings: rat, oral, 15 days, 300 mg/kg/day; absolute values; solvent 5,4
Protocol: as §3

[3] = 100 mg/kg/day, by difference between total and HDL, read-out: Cholesterol VLDL + LDL (percent variation vs hyperlipaemic controls)
[4] = 100 mg/kg/day, read-out: Cholesterol HDL (percent variation vs hyperlipaemic controls)
[5] = 100 mg/kg/day, read-out: Total Cholesterol (percent variation vs hyperlipaemic controls)
[6] = 100 mg/kg/day, read-out: Triglycerides (percent variation vs hyperlipaemic controls)
[7] = 300 mg/kg/day, by difference between total and HDL, read-out: Cholesterol VLDL + LDL (percent variation vs hyperlipaemic controls)
[8] = 300 mg/kg/day, read-out: Total Cholesterol (percent variation vs hyperlipaemic controls)
[9] = 300 mg/kg/day, read-out: Triglycerides (percent variation vs hyperlipaemic controls)

SMILES	change in vivo at 100 mg/kg/day [1, 3]	change in vivo at 100 mg/kg/day [1, 4]	change in vivo at 100 mg/kg/day [1, 5]	change in vivo at 100 mg/kg/day [1, 6]	change in vivo at 300 mg/kg/day [1, 7]	change in vivo at 300 mg/kg/day [1, 8]	change in vivo at 300 mg/kg/day [1, 9]	Hepatic index (percent variation vs hyperlipaemic controls) ([1]; 100 mg/kg/day)	Hepatic index (percent variation vs hyperlipaemic controls) ([1]; 300 mg/kg/day)	Cholesterol HDL (percent variation vs hyperlipaemic controls) ([2]; 50 mg/kg/day)	Total Cholesterol (percent variation vs hyperlipaemic controls) ([2]; 50 mg/kg/day)	Triglycerides (percent variation vs hyperlipaemic controls) ([2]; 50 mg/kg/day)	Cholesterol VLDL + LDL (percent variation vs hyperlipaemic controls) ([2]; 50 mg/kg/day)	Hepatic index (percent variation vs hyperlipaemic controls) ([2]; 50 mg/kg/day)	Cholesterol HDL (percent variation vs hyperlipaemic controls) ([2]; 100 mg/kg/day)	Total Cholesterol (percent variation vs hyperlipaemic controls) ([2]; 100 mg/kg/day)	Triglycerides (percent variation vs hyperlipaemic controls) ([2]; 100 mg/kg/day)	Cholesterol VLDL + LDL (percent variation vs hyperlipaemic controls) ([2]; 100 mg/kg/day)	Hepatic index (percent variation vs hyperlipaemic controls) ([2]; 100 mg/kg/day)	Catalase enzyme activity (catalase enzyme)	also measured
CC(C)COC(=O)c1ccc(OCC(O)CSc2nc3ccccc3s2)cc1 (stereo not shown) [Example 6, 2-[3-[(p-isobutyloxycarbonyl)-phenoxy]-2-hydroxy-propylthio]-benzothiazole]	-18.8%	7.7%	-17%	-15.6%	-27.9%	-24.9%	-23.4%	+2,2%	+0,4%	+1,0%	-16,1%	-18,2%	-19,0%	-1,7%	+4,3%	-19,0%	-49,1%	-21,7%	-4,1%	504,6 umoli/min/mg proteins	Hepatic index (Liver weight/body weight) × 100 (liver): 5,9
CC(C)COC(=O)c1ccc(OCC(O)CSc2nc3ccccc3o2)cc1 (stereo not shown) [Example 11]	-22.8%	9.5%	-21.4%	-21.6%	-39.7%	-37.1%	-30.3%	-2,3%	-1,7%	-9,9%	-36,6%	-48,5%	-39,7%	+0,2%	+16,1%	-34,4%	-46,8%	-40,2%	-3,1%	444,7 umoli/min/mg proteins	change in vivo at 300 mg/kg/day ([1]; 300 mg/kg/day, read-out: Cholesterol HDL (percent variation vs hyperlipaemic controls)): 14.9%; Hepatic index (Liver weight/body weight) × 100 (liver): 5,8

— patent publication US5470858A, “Derivatives of (hetero)aromatic ethers and thioethers having antihyperlipidemic activity, process for their preparation and pharmaceutical compositions containing them” (Pierrel SpA, priority 1991, dated 1995)
